Data on 24 compounds can be found in patent US11485736B2 (KSQ Therapeutics, Inc., priority 2018, dated 2022).

Molecules are shown by their SMILES. Like-named read-outs stand apart in the source and are kept apart here.

In general, solubility refers to how much of the substance goes into solution per volume.

Data set [1] in a line: Liver microsomal stability, rat liver microsomes. It is filed as in vitro ADME. Conditions: 1 μM compound, NADPH, read-out: t1/2 (min) in RLM. The essentials:
(§1)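 Compound (1 μM final) was incubated with prewarmed human or rat liver microsomes (1 mg/mL in 100 mM phosphate master mix) plus NADPH; aliquots at 0.5–30 minutes were quenched in cold acetonitrile and quantified by LC-MS/MS. Half-life came from the ln(% remaining) versus time slope, converted to CLint (μL/min/mg prot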
Background: Liver microsomes are vesicles of endoplasmic reticulum, rich in cytochrome P450 enzymes.

A short description of data set [2]: ADME solubility determination at pH 2.0 and pH 7.4. It is filed as physicochemical. Conditions: aqueous buffer, thermodynamic from solid, LC-MS/MS. The gist of the method: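 Dried residues of 10 mM DMSO stocks were shaken in PBS pH 7.4 or pH 2.0 for 24 hours at 25° C. and 1,100 rpm. After centrifugation, supernatants were quantified by LC-MS/MS against a standard of known concentration, applying a dilution factor.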

Data set [3] in a line: Liver microsomal stability, human liver microsomes. Format: in vitro ADME. Conditions: 1 μM compound, NADPH, read-out: t1/2 (min) in HLM. The gist of the method:
as §1

Where [4] appears, read: PBS pH 2.0, shaken at 25° C. for 24 hours, read-out: Solubility at pH 2.0.
The mark [5] stands for this setting: PBS pH 7.4, shaken at 25° C. for 24 hours, read-out: Solubility at pH 7.4.

For `Cn1cc(C(F)(F)F)nc1-c1ccc(Cn2ncc3cnc(-c4c(OS(=O)(=O)C(F)(F)F)ncnc4C4CC4)nc32)cc1` [Example 160, 6-Cyclopropyl-5-(1-(4-(1-methyl-4-(trifluoromethyl)-1H-imidazol-2-yl)benzyl)-1H-pyrazolo[3,4-d]pyrimidin-6-yl)pyrimidin-4-yl trifluoromethanesulfonate], the half-life at 1 μM in data set [1] and in data set [3] was more than 25 min in each case. In addition, the solubility at 24 h in data set [2] (setting [4]) and in data set [2] (setting [5]) was less than 10 µM in each case.
As for `COc1ncnc(C2CC2)c1-c1ncc2cnn(Cc3ccc(-c4nc(C(F)(F)F)c(Br)n4C(C)C)cc3)c2n1` [Example 162], the half-life at 1 μM in data set [1] and in data set [3] was more than 25 min in each case. For the same compound, the solubility at 24 h in data set [2] (setting [4]) and in data set [2] (setting [5]) was less than 10 µM in each case.
Turning to `COc1ncnc(C2CC2)c1-c1ncc2cnn(Cc3ccc(-c4nc(C(F)(F)F)c(Br)n4C)cc3)c2n1` [Example 163], the half-life at 1 μM in data set [1] and in data set [3] was more than 25 min in each case. The solubility at 24 h in data set [2] (setting [4]) and in data set [2] (setting [5]) was less than 10 µM each time.
For `CCn1c(-c2ccc(Cn3ncc4cnc(-c5c(OC)ncnc5C5CC5)nc43)cc2)nc(C(F)(F)F)c1OC` [Example 164, 6-(4-cyclopropyl-6-methoxypyrimidin-5-yl)-1-(4-(1-ethyl-5-methoxy-4-(trifluoromethyl)-1H-imidazol-2-yl)benzyl)-1H-pyrazolo[3,4-d]pyrimidine], the half-life at 1 μM in data set [1] and in data set [3] was less than 25 min throughout. Also, the results for the solubility at 24 h in data set [2] (setting [4]) and in data set [2] (setting [5]) were more than 10 µM and less than 10 µM, respectively.
As for `COc1ncnc(C2CC2)c1-c1ncc2cnn(Cc3ccc(-c4nc(C(F)(F)F)c(OC)n4C)cc3)c2n1` [Example 165], the half-life at 1 μM in data set [1] and in data set [3] was more than 25 min throughout. Also, the solubility at 24 h in data set [2] (setting [4]) and in data set [2] (setting [5]) was less than 10 µM each time.
Turning to `COc1ncnc(C2CC2)c1-c1ncc2cnn(Cc3ccc(-c4nc(C(F)(F)F)c(OC)n4C(C)C)cc3)c2n1` [Example 166], the half-life at 1 μM in data set [1] and in data set [3] was less than 25 min throughout. The solubility at 24 h in data set [2] (setting [4]) and in data set [2] (setting [5]) was less than 10 µM throughout.
Take `CCn1c(-c2ccc(Cn3ncc4cnc(-c5c(OC)ncnc5C5CC5)nc43)cc2)nc(C(F)(F)F)c1C` [Example 167, 6-(4-cyclopropyl-6-methoxypyrimidin-5-yl)-1-(4-(1-ethyl-5-methyl-4-(trifluoromethyl)-1H-imidazol-2-yl)benzyl)-1H-pyrazolo[3,4-d]pyrimidine]: the half-life at 1 μM in data set [1] and in data set [3] was less than 25 min throughout. The solubility at 24 h in data set [2] (setting [4]) was more than 10 µM; in data set [2] (setting [5]), less than 10 µM.
As for `COc1ncnc(C2CC2)c1-c1ncc2cnn([C@@H](C)c3ccc(-c4nc(C(F)(F)F)cn4CCF)cc3)c2n1` [Example 169], the half-life at 1 μM in data set [1] and in data set [3] was more than 25 min throughout. In addition, the solubility at 24 h was more than 10 µM in data set [2] (setting [4]) and less than 10 µM in data set [2] (setting [5]).
For `CCn1cc(C(F)(F)F)nc1-c1ccc(Cn2nc(Br)c3cnc(-c4c(OC)ncnc4C4CC4)nc32)cc1` [Example 170, 3-bromo-6-(4-cyclopropyl-6-methoxypyrimidin-5-yl)-1-(4-(1-ethyl-4-(trifluoromethyl)-1H-imidazol-2-yl)benzyl)-1H-pyrazolo[3,4-d]pyrimidine], the half-life at 1 μM in data set [1] is less than 25 min; in data set [3], more than 25 min. For the same compound, the solubility at 24 h in data set [2] (setting [4]) and in data set [2] (setting [5]) was less than 10 µM throughout.
In the case of `CCn1cc(C(F)(F)F)nc1-c1ccc(Cn2nc(C#N)c3cnc(-c4c(OC)ncnc4C4CC4)nc32)cc1` [Example 172, 6-(4-cyclopropyl-6-methoxypyrimidin-5-yl)-1-(4-(1-ethyl-4-(trifluoromethyl)-1H-imidazol-2-yl)benzyl)-1H-pyrazolo[3,4-d]pyrimidine-3-carbonitrile], the half-life at 1 μM in data set [1] is less than 25 min; in data set [3], more than 25 min. Also, the solubility at 24 h in data set [2] (setting [4]) and in data set [2] (setting [5]) was less than 10 µM throughout.
Regarding `COc1ncnc(C2CC2)c1-c1ncc2cnn([C@H]3CCc4cc(-c5nc(C(F)(F)F)cn5C(C)C)ccc43)c2n1` [Example 173, (S)-6-(4-cyclopropyl-6-methoxypyrimidin-5-yl)-1-(5-(1-isopropyl-4-(trifluoromethyl)-1H-imidazol-2-yl)-2,3-dihydro-1H-inden-1-yl)-1H-pyrazolo[3,4-d]pyrimidine], the half-life at 1 μM in data set [1] and in data set [3] was more than 25 min in each case. Besides, the solubility at 24 h in data set [2] (setting [4]) and in data set [2] (setting [5]) was less than 10 µM in each case.
Turning to `COc1ncnc(C2CC2)c1-c1ncc2cnn([C@@H]3CCc4cc(-c5nc(C(F)(F)F)cn5C(C)C)ccc43)c2n1` [Example 174], the half-life at 1 μM in data set [1] and in data set [3] was more than 25 min each time. In addition, the solubility at 24 h in data set [2] (setting [4]) and in data set [2] (setting [5]) was less than 10 µM in each case.
Regarding `CCn1cc(C(F)(F)F)nc1-c1ccc(Cn2nc(OC)c3cnc(-c4c(OC)ncnc4C4CC4)nc32)cc1F` [Example 175, 6-(4-cyclopropyl-6-methoxypyrimidin-5-yl)-1-(4-(1-ethyl-4-(trifluoromethyl)-1H-imidazol-2-yl)-3-fluorobenzyl)-3-methoxy-1H-pyrazolo[3,4-d]pyrimidine], the half-life at 1 μM in data set [1] and in data set [3] was more than 25 min each time. In addition, the solubility at 24 h in data set [2] (setting [4]) and in data set [2] (setting [5]) was less than 10 µM each time.
For the compound `CCn1cc(C(F)(F)F)nc1-c1ccc(Cn2nc(OC)c3cnc(-c4c(OC)ncnc4C4CC4)nc32)cc1` [Example 176], the half-life at 1 μM in data set [1] and in data set [3] was more than 25 min in each case. Also, the solubility at 24 h is more than 10 µM in data set [2] (setting [4]) and less than 10 µM in data set [2] (setting [5]).
On to `COc1ncnc(C2CC2)c1-c1ncc2c(OC)nn(C(C)c3ccc(-c4nc(C(F)(F)F)cn4CCF)cc3)c2n1` (stereo not drawn) [Example 177], for which the half-life at 1 μM in data set [1] and in data set [3] was more than 25 min throughout. The solubility at 24 h in data set [2] (setting [4]) and in data set [2] (setting [5]) was less than 10 µM in each case.
Turning to `COc1ncnc(C2CC2)c1-c1ncc2c(OC)nn([C@@H](C)c3ccc(-c4nc(C(F)(F)F)cn4CCF)cc3)c2n1` [Example 178], the half-life at 1 μM in data set [1] and in data set [3] was more than 25 min in each case. Also, the solubility at 24 h in data set [2] (setting [4]) and in data set [2] (setting [5]) was less than 10 µM each time.
`CCn1cc(C(F)(F)F)nc1-c1ccc([C@H](C)n2nc(OC)c3cnc(-c4c(OC)ncnc4C4CC4)nc32)cc1` [Example 180]: the half-life at 1 μM in data set [1] and in data set [3] was more than 25 min in each case. Also, the solubility at 24 h in data set [2] (setting [4]) and in data set [2] (setting [5]) was less than 10 µM throughout.
On to `COc1ncnc(C2CC2)c1-c1ncc2c(OC)nn([C@@H](C)c3ccc(-c4nc(C(F)(F)F)cn4C(C)C)cc3)c2n1` [Example 181], for which the half-life at 1 μM in data set [1] and in data set [3] was more than 25 min in each case. The solubility at 24 h in data set [2] (setting [4]) is more than 10 µM; in data set [2] (setting [5]), less than 10 µM.
In the case of `CCOc1nn(Cc2ccc(-c3nc(C(F)(F)F)cn3CC)cc2)c2nc(-c3c(OC)ncnc3C3CC3)ncc12` [Example 182], the half-life at 1 μM in data set [1] and in data set [3] was more than 25 min each time. The solubility at 24 h in data set [2] (setting [4]) and in data set [2] (setting [5]) was less than 10 µM throughout.
For the compound `CCOc1ncnc(C2CC2)c1-c1ncc2c(OCC)nn(Cc3ccc(-c4nc(C(F)(F)F)cn4CC)cc3)c2n1` [Example 183], the half-life at 1 μM in data set [1] and in data set [3] was less than 25 min each time. Moreover, the solubility at 24 h in data set [2] (setting [4]) and in data set [2] (setting [5]) was less than 10 µM each time.
Consider `CCn1cc(C(F)(F)F)nc1-c1ccc(Cn2nc(OC3CCC3)c3cnc(-c4c(OC)ncnc4C4CC4)nc32)cc1` [Example 184], for which the half-life at 1 μM in data set [1] and in data set [3] was less than 25 min throughout. The solubility at 24 h in data set [2] (setting [4]) and in data set [2] (setting [5]) was less than 10 µM each time.
Turning to `COc1ncnc(C2CC2)c1-c1ncc2c(OC)nn(Cc3ccc(-c4cn(C(C)C)c(C(F)(F)F)n4)cc3)c2n1` [Example 185], the half-life at 1 μM in data set [1] and in data set [3] was more than 25 min in each case. Moreover, the solubility at 24 h in data set [2] (setting [4]) and in data set [2] (setting [5]) was less than 10 µM throughout.
Take `CCn1cc(C(F)(F)F)nc1-c1ccc(Cn2nc(N3CCC3)c3cnc(-c4c(OC)ncnc4C4CC4)nc32)cc1` [Example 186, 3-(azetidin-1-yl)-6-(4-cyclopropyl-6-methoxypyrimidin-5-yl)-1-(4-(1-ethyl-4-(trifluoromethyl)-1H-imidazol-2-yl)benzyl)-1H-pyrazolo[3,4-d]pyrimidine]: the half-life at 1 μM in data set [1] and in data set [3] was less than 25 min in each case. In addition, the solubility at 24 h in data set [2] (setting [4]) and in data set [2] (setting [5]) was more than 10 µM throughout.
`CCn1cc(C(F)(F)F)nc1-c1ccc(Cn2nc(C)c3cnc(-c4c(OC)ncnc4C4CC4)nc32)cc1` [Example 187, 6-(4-cyclopropyl-6-methoxypyrimidin-5-yl)-1-(4-(1-ethyl-4-(trifluoromethyl)-1H-imidazol-2-yl)benzyl)-3-methyl-1H-pyrazolo[3,4-d]pyrimidine]: the half-life at 1 μM is less than 25 min in data set [1] and more than 25 min in data set [3]. In addition, the solubility at 24 h in data set [2] (setting [4]) and in data set [2] (setting [5]) was less than 10 µM in each case.
